Experimental findings from patent US12624004B2 (Fudan University, priority 2019, dated 2026) are described below.

In general, Ki refers to a measure of affinity in units of concentration, obtained from inhibition or displacement.

In one assay the target is T1, κ opioid receptor (Homo sapiens, UniProt P41145).
T1 construct: expressed in transfected cells; host or cells: CHO cells (membranes)
Briefly: Competition binding assay on membranes of CHO cells expressing κ opioid receptor, [3H]-labeled ligand. The following applies: for inhibition at 10 µM / inhibition at 1 µM: 0.5 h; for inhibition at 10 µM: 10 μM concentration of compound; for Ki: read-out: κOR Ki; for inhibition at 1 µM: 1 μM concentration of compound. As to the method: (§1) CHO cells expressing p opioid receptor, δ opioid receptor and κ opioid receptor were cultured in 10 cm^2 culture dishes (F-12 medium+10% neonatal bovine serum) for several days, and the culture fluid was aspirated after the cells had grown to the bottom of the dishes; 3 ml of PBS/EDTA solution (0.1M NaCl, 0.01M NaH2PO4, 0.04% EDTA) was added to digest the cells for 3-5 min. Add ice-cold homogenate (50 mM HEPES PH 7.4, 3 mM MgCl, 1 mM EGTA) to the centrifuge tube, transfer the solution and sediment to a homogenizer and homogenize; then transfer the homogenate to a centrifuge tube and centrifuge at 18000 rpm. Centrifuge for 15 min, two times; the obtained precipitate was homogenized with appropriate amount of 50 mM Tris-HCl, pH 7.4 buffer and divided into centrifuge tubes and stored at −70° C. in the refrigerator until use.
(§2) The total binding tube was spiked with 20-30 μg of the expressed membrane receptor protein and […] ligand (1-2 nM), the corresponding non-specific binding tube was spiked with 1 μM of the corresponding ligand, and the sample tubes were spiked with various screened opioid ligands in a final volume of […], incubated at 30° C. for 30 min, and the reaction was terminated in ice water. […] The samples were filtered under negative pressure through GF/C (whatman) glass fiber filter paper on a Millipore sample collector. The reaction was rinsed three times with 4 ml of 50 mMV Tris-HCl (pH 7.4), the filter paper was dried and placed in 0.5 ml Eppendorf tubes with 0.5 ml of lipophilic scintillation solution, the radioactivity was measured by PERKIN ELMER PRI-CARB 2910 liquid scintillation counter and the inhibition rate was calculated. Inhibition rate (or binding rate)=(total binding rate dpm−sample tube dpm)/(total binding tube dpm−non-specific binding tube dpm)×100%
(§3) IC50 was calculated using Prism 5.0 software. the Ki value was calculated as follows, Ki=IC50/(1+[IL]/Kd), [lL] is the concentration of the added labeled ligand and Kd is the equilibrium dissociation parameter of the labeled ligand.
(§4) CHO cells expressing p opioid receptor, δ opioid receptor and κ opioid receptor were cultured in a 10 cm^2 culture dish (F-12 medium+10% neonatal bovine serum) for several days, and the culture fluid was aspirated after the cells grew to the bottom of the dish. 3 mL PBS/EDTA solution (0.1 M NaCl, 0.01 M NaH2PO4, 0.04% EDTA) was added to digest the cells for 3˜5 min, blew with a pipette to completely dislodge the cells. The cells were collected in a 40 mL centrifuge tube, centrifuged at 5000 rpm for 5 min. The supernatant was removed and the ice-cold homogenate (50 mM HEPES pH 7.4, 3 mM MgCl2, 1 mM EGTA) was added to the centrifuge tube. The solution and the precipitate were transferred to a homogenizer. Then the homogenate was transferred to a centrifuge tube and centrifuged at 18000 rpm for 15 min. The precipitate was centrifuged twice at 18000 rpm for 15 min. The obtained precipitate was homogenized by adding appropriate amount of 50 mM Tris-HCl, pH 7.4 buffer and divided into centrifuge tubes and stored at −70° C. in the refrigerator until use.
(§5) The total binding tube was added with 20-30 μg of expressed membrane receptor protein and [3H]-labeled ligand (1-2 nM). The corresponding non-specific binding tube was added with 1 μM of the corresponding ligand, and the sample tubes were added with various screened opioid ligands in a final volume of 100 μL. All of them were incubated for 30 min at 30° C., and the reaction was terminated in ice water. The samples were filtered under negative pressure through GF/C (Whatman) glass fiber filter paper on a Millipore sample collector. The reaction was rinsed three times with 4 mL of 50 mM Tris-HCl (pH 7.4), the filter paper was dried and placed in 0.5 mL Eppendorf tubes with 0.5 mL of lipophilic scintillation solution. […]

In another assay the target is T2, δ opioid receptor (Homo sapiens, UniProt P41143).
T2 construct: expressed in transfected cells; host or cells: CHO cells (membranes)
Briefly: Competition binding assay on membranes of CHO cells expressing δ opioid receptor, [3H]-labeled ligand. The following applies: for inhibition at 10 µM / inhibition at 1 µM: 0.5 h; for inhibition at 10 µM: Table 1-1, 10 μM concentration of compound; for Ki: read-out: δOR Ki; for inhibition at 1 µM: 1 μM concentration of compound. As to the method: as §1, §2, §3, §4, §5

Another assay addresses T3, μ opioid receptor (Homo sapiens, UniProt P35372).
T3 construct: expressed in transfected cells; host or cells: CHO cells (membranes)
Briefly: Competition binding assay on membranes of CHO cells expressing μ opioid receptor, [3H]-labeled ligand. The following applies: for inhibition at 10 µM: Table 1-1, 10 μM concentration of compound, mean ± SD of three measurements, read-out: μOR Binding rate (%); for Ki: read-out: μOR Ki. As to the method: as §1, §2, §3, §4, §5

Setting [1] is: Table 1-1, read-out: κOR Binding rate (%).
Setting [2] is: Table 4-1, read-out: κOR Binding rate (%).
[3] abbreviates: Table 4-1, read-out: δOR Binding rate (%).

Each structure is given as a SMILES string. Structures can show the parent of a compound that is named as a salt. Where two headings read alike, the source gives them in different places.

For the compound `COc1cccc(C2(OC(=O)c3ccccc3)CCC(N(C)S(=O)(=O)Cc3ccccc3)CC2CN(C)C)c1` (stereo not drawn), the inhibition at 10 µM on κ opioid receptor (setting [1]) turned out to be 35.7 ± 3%; at δ opioid receptor (read-out: δOR Binding rate (%)) it was 30.1 ± 14.9%; at μ opioid receptor, 81.2 ± 4.2%.

Consider `COc1cccc(C2(OC(=O)c3ccccc3)CCC(NS(=O)(=O)c3ccccc3)CC2CN(C)C)c1` (stereo not drawn), for which the inhibition at 10 µM at κ opioid receptor (setting [1]) was found to be 51.5 ± 6.6%; at δ opioid receptor (read-out: δOR Binding rate (%)) it was 17.4 ± 2.5%; at μ opioid receptor, 80.9 ± 4.4%.

In the case of `COc1cccc(C2(O)CCC(NS(=O)(=O)c3cccc(Cl)c3)CC2CN(C)C)c1` (stereo not drawn), the inhibition at 10 µM was 35.9 ± 5.7% on κ opioid receptor (setting [1]), 14.5 ± 5.8% on δ opioid receptor (read-out: δOR Binding rate (%)) and 79.7 ± 4.6% on μ opioid receptor.

Turning to `COc1cccc(C2(OC(=O)c3ccccc3)CCC(N(C)S(=O)(=O)Cc3cccc(Cl)c3)CC2CN(C)C)c1` (stereo not drawn), the inhibition at 10 µM on κ opioid receptor (setting [1]) was found to be 25.5 ± 6.1%; at δ opioid receptor (read-out: δOR Binding rate (%)), 4.8%; at μ opioid receptor it was 89.8 ± 4.6%.

For `COc1cccc(C2(OC(=O)c3ccccc3)CCC(NS(=O)(=O)c3cccc(Cl)c3)CC2CN(C)C)c1` (stereo not drawn), the inhibition at 10 µM at κ opioid receptor (setting [1]) turned out to be 39 ± 5.5%; on δ opioid receptor (read-out: δOR Binding rate (%)) it was 18.8 ± 8.6%; on μ opioid receptor it was 70.4 ± 3%.

Turning to `COc1cccc(C2(O)CCC(N(Cc3ccccc3)S(=O)(=O)c3cccc(Cl)c3)CC2CN(C)C)c1` (stereo not drawn), the Ki on κ opioid receptor (Table 1-1) came out at 9.81 ± 0.32 nM. Also, the inhibition at 10 µM on δ opioid receptor (read-out: δOR Binding rate (%)) is 5.1%; on μ opioid receptor, 85.8 ± 3.2%.

With `COc1cccc(C2(O)CCC(N(Cc3ccccc3)S(=O)(=O)c3ccccc3)CC2CN(C)C)c1` (stereo not drawn), the inhibition at 10 µM at κ opioid receptor (setting [1]) is 84.7 ± 2.1%; at δ opioid receptor (read-out: δOR Binding rate (%)) it was 9.53%; at μ opioid receptor, 70.5 ± 2.3%.

As to `CN(C)C[C@@H]1CN(C(=O)Cc2cc(F)c(F)cc2F)CC[C@@]1(O)c1cccc(O)c1`, the Ki on κ opioid receptor (Table 4-1) was 127 ± 1.6 nM; on δ opioid receptor (Table 4-1), 178 ± 17.9 nM; on μ opioid receptor (Table 4-1) it was 1.77 ± 0.18 nM.

Take `COc1cccc([C@]2(O)CCN(C(=O)Cc3cc(F)c(F)cc3F)C[C@H]2CN(C)C)c1`: the inhibition at 1 µM on κ opioid receptor (setting [2]) was 33 ± 4.1%; on δ opioid receptor (setting [3]), 26.6 ± 3.9%. Besides, the Ki at μ opioid receptor (Table 4-1) was 165 ± 22.3 nM.

For `CN(C)C[C@H]1CN(C(=O)Cc2cc(F)c(F)cc2F)CC[C@]1(O)c1cccc(O)c1`, the Ki on κ opioid receptor (Table 4-1) amounted to 42.3 ± 0.6 nM; at δ opioid receptor (Table 4-1), 3560 ± 96.5 nM; on μ opioid receptor (Table 4-1), 53.5 ± 0.09 nM.

On to `COc1cccc([C@@]2(O)CCN(C(=O)Cc3cc(F)c(F)cc3F)C[C@@H]2CN(C)C)c1`, for which the inhibition at 1 µM at κ opioid receptor (setting [2]) was 23.4 ± 3.9%; at δ opioid receptor (setting [3]) it was 0%. In addition, the inhibitory constant (Ki) at μ opioid receptor (Table 4-1) came out at 2310 ± 234 nM.

As to `COc1cccc(C2(O)CCC(S(=O)(=O)Cc3ccccc3)CC2CN(C)C)c1` (stereo not drawn) [4-(Benzylsulfonyl)-2-((dimethylamino)methyl)-1-(3-methoxyphenyl) cyclohexane-1-ol hydrochloride], the figures for the inhibition at 10 µM on κ opioid receptor (setting [1]), on δ opioid receptor (read-out: δOR Binding rate (%)) and at μ opioid receptor were 47.7 ± 3.1%, 44 ± 7.85% and 98.6 ± 1.2%, respectively.

As for `CN(C)C[C@@H]1CN(S(=O)(=O)Cc2ccccc2)CC[C@@]1(O)c1cccc(O)c1` [(3R,4S)-1-(Benzylsulfonyl)-3-((dimethylamino)methyl)-4-(3-hydroxyphenyl)piperidin-4-ol hydrochloride], the inhibitory constant (Ki) on κ opioid receptor (Table 4-1) came to 33.7 ± 3.26 nM; on δ opioid receptor (Table 4-1), 1100 ± 42 nM; on μ opioid receptor (Table 4-1), 0.17 ± 0.01 nM.

In the case of `COc1cccc([C@]2(O)CCN(S(=O)(=O)Cc3ccccc3)C[C@H]2CN(C)C)c1` [(3R,4S)-1-(Benzylsulfonyl)-3-((dimethylamino)methyl)-4-(3-methoxyphenyl)piperidin-4-ol hydrochloride salt], the inhibition at 0.1 µM on κ opioid receptor (Table 4-1 footnote a, 0.1 μM, read-out: κOR Inhibition rate) is 15.2 ± 1.56%; on δ opioid receptor (Table 4-1 footnote a, 0.1 μM, read-out: δOR Inhibition rate), 10.5 ± 3.7%; at μ opioid receptor (Table 4-1 footnote a, 0.1 μM, read-out: μOR Inhibition rate), 27.5 ± 1.54%.

For `CN(C)C[C@H]1CN(S(=O)(=O)Cc2ccccc2)CC[C@]1(O)c1cccc(O)c1` [(3S,4R)-1-(Benzylsulfonyl)-3-((dimethylamino)methyl)-4-(3-hydroxyphenyl)piperidin-4-ol hydrochloride], the values for the Ki on κ opioid receptor (Table 4-1), at δ opioid receptor (Table 4-1) and on μ opioid receptor (Table 4-1) were 231 ± 13.1 nM, 1089 ± 9 nM and 38.3 ± 1.18 nM, respectively.

For `COc1cccc(C2(O)CCN(C(=O)Cc3ccccc3Cl)CC2CN(C)C)c1` (stereo not drawn) [FWBE20, 2-(2-Chlorophenyl)-1-(3-((dimethylamino)methyl)-4-hydroxy-4-(3-methoxyphenyl)piperidin-1-yl)ethyl-1-one hydrochloride], the inhibition at 1 µM amounted to 34.8 ± 0.7% at κ opioid receptor (Table 5-1, read-out: κOR Combination rate (%)); 0% on δ opioid receptor (Table 5-1, read-out: δOR Combination rate (%)); 28.3 ± 7.2% on μ opioid receptor (0.5 h, Table 5-1, 1 μM concentration of compound, read-out: μOR Combination rate (%)).

On to `COc1cccc(C2(O)CCC(NS(=O)(=O)c3ccccc3)CC2CN(C)C)c1` (stereo not drawn) [N-(3-((Dimethylamino)methyl)-4-hydroxy-4-(3-methoxyphenyl)cyclohexyl) benzenesulfonamide hydrochloride], for which the inhibition at 10 µM on κ opioid receptor (setting [1]) was 25.8 ± 7.9%; at δ opioid receptor (read-out: δOR Binding rate (%)), 38 ± 2.43%; at μ opioid receptor it was 75.8 ± 4.1%.

Consider `CN(C)CC1CN(S(=O)(=O)Cc2ccccc2)CCC1(O)c1cccc(OC(F)(F)F)c1.Cl` (stereo not drawn) [hydrochloride], for which the inhibition at 1 µM on κ opioid receptor (Table 2-1, read-out: κOR Binding rate (%)) is 21.4 ± 0.36%; on δ opioid receptor (Table 2-1, read-out: δOR Binding rate (%)) it was 40.8 ± 2.23%. Moreover, the Ki at μ opioid receptor (Table 2-1) was 64.5 ± 1.76 nM.

Take `COc1cccc(C2(OC(F)F)CCN(S(=O)(=O)Cc3ccccc3)CC2CN(C)C)c1.Cl` (stereo not drawn) [hydrochloride]: the inhibition at 0.1 µM on κ opioid receptor (Table 2-1 footnote a, at 0.1 μM, read-out: κOR Inhibition rate or binding rate) worked out at 15.5 ± 4.1%; on δ opioid receptor (Table 2-1 footnote a, at 0.1 μM, read-out: δOR Inhibition rate or binding rate), 0%; at μ opioid receptor (Table 2-1 footnote a, at 0.1 μM, read-out: μOR Inhibition rate or binding rate), 22.6 ± 9.8%.
